Reference: ChEMBL document CHEMBL1133403 (Bioorg Med Chem Lett, 2000)

How the values were obtained:
Progesterone receptor [1] = target: T1, Progesterone receptor (Homo sapiens, UniProt P06401); test: Human progesterone receptor (hPR) agonist activity using cotransfection assay in CV-1 cells.; format: functional, cell-based
T1 sequence (P06401 whole entry): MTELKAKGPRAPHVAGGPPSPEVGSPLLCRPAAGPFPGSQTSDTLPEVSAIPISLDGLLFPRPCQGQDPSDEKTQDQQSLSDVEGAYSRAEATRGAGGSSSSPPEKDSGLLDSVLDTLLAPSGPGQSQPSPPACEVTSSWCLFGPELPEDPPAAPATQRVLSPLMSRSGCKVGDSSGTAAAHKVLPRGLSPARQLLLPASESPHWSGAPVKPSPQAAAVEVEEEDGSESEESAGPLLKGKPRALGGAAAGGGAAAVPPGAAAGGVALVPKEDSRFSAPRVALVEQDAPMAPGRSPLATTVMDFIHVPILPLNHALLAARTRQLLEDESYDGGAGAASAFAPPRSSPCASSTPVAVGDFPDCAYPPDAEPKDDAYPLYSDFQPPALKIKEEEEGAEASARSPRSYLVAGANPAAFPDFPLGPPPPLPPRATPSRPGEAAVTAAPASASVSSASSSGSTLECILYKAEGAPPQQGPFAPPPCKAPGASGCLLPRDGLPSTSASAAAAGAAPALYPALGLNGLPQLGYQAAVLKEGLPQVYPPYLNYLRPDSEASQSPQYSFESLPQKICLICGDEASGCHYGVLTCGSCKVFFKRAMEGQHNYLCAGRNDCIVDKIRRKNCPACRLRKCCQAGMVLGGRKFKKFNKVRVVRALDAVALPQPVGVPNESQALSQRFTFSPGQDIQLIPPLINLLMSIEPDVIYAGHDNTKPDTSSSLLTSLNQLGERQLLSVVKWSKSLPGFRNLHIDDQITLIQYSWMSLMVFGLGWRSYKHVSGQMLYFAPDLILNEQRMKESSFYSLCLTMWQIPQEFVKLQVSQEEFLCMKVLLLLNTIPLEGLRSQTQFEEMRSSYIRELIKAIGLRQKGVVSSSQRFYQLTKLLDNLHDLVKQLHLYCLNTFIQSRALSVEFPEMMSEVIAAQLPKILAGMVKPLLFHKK

Androgen receptor = target: T2, Androgen receptor (Homo sapiens, UniProt P10275); test: Cross-reactivity as binding to human androgen receptor (hAR); format: functional
T2 sequence (P10275 whole entry): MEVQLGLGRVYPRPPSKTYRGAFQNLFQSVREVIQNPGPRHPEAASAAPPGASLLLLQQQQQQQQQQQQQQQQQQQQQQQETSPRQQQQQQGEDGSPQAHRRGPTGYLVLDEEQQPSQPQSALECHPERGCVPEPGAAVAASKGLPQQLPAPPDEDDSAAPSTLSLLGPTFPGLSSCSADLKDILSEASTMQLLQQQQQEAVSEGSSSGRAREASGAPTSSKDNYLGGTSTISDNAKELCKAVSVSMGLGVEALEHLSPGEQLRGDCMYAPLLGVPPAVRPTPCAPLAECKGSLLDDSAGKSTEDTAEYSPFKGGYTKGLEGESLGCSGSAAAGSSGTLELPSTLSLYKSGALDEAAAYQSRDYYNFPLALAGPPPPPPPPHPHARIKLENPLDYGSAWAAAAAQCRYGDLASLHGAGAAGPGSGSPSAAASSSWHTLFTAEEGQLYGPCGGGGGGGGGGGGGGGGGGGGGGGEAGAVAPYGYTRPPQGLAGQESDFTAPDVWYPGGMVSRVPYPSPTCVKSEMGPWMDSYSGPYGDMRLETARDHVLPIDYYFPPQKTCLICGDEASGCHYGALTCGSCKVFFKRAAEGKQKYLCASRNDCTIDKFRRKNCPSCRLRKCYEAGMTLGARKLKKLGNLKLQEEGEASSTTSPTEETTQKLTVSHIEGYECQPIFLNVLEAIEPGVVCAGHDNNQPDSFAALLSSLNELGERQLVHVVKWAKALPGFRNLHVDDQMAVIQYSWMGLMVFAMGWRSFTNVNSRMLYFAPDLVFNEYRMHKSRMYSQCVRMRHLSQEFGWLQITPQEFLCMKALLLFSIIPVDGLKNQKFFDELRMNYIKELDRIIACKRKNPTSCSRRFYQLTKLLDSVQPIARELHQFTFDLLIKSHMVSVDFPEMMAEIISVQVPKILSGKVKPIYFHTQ

Glucocorticoid receptor = target: T3, Glucocorticoid receptor (Homo sapiens, UniProt P04150); test: Cross-reactivity as binding to human glucocorticoid receptor (hGR); NA=not active; format: functional
T3 sequence (P04150 whole entry): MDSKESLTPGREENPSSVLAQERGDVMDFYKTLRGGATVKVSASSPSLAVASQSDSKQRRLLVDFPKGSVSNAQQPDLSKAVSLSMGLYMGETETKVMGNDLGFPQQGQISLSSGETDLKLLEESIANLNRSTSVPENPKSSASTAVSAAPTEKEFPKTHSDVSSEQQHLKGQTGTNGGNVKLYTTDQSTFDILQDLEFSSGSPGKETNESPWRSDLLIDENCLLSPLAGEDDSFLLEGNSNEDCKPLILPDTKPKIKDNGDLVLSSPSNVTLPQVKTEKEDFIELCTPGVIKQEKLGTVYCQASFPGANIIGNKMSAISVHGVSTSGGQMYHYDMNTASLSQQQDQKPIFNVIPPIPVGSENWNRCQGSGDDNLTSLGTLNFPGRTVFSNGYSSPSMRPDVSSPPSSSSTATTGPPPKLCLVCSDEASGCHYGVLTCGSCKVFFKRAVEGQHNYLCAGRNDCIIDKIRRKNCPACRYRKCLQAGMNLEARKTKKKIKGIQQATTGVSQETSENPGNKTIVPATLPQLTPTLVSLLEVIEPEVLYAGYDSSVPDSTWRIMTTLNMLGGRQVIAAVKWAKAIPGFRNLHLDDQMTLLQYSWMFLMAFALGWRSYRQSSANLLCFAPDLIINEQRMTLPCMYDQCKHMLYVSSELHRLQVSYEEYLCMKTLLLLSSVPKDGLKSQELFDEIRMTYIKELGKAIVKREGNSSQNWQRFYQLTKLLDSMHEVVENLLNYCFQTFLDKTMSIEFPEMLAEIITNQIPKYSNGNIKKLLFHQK

Progesterone receptor [2] = target: T1, Progesterone receptor; test: Human progesterone receptor (hPR) agonist activity in T47D human breast cancer cell line; format: functional, cell-based

CC1=CC(C)(C)Nc2ccc(-c3ccc([N+](=O)[O-])s3)cc21
EC50 (Progesterone receptor [1]): Not Active
IC50 (Androgen receptor): 1460 nM
IC50 (Glucocorticoid receptor): Not Active
EC50 (Progesterone receptor [2]): 1020 nM
